Tests used:
Experiment in all cases: relative viability (nuclei count vs DMSO), 5 days (fraction); higher = more cells survive
[1] = test system: COR-L23
How it was run: (§1)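 Medians of duplicate plates are given as relative viability. That measure is the nuclei count in treated wells divided by the count in vehicle wells. Counts were taken on 4× images of lung cancer cell lines in 1536-well plates, 5 days after pin-tool dosing the day after seeding with one drug alone or a fixed anchor-drug dose plus five library-drug doses (not always all listed) in √10 steps.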

[2] = test system: SK-MES-1
How it was run: as §1

[3] = test system: NCI-H23
How it was run: as §1

[4] = test system: PC-14
How it was run: as §1

[5] = test system: NCI-H661
How it was run: as §1

[6] = test system: NCI-H1437
How it was run: as §1

[7] = test system: UMC-11
How it was run: as §1

[8] = test system: NCI-H2087
How it was run: as §1

[9] = test system: HCC-827
How it was run: as §1

[10] = test system: NCI-H2228
How it was run: as §1

[11] = test system: NCI-H2085
How it was run: as §1

[12] = test system: LCLC-103H
How it was run: as §1

[13] = test system: H3255
How it was run: as §1

[14] = test system: NCI-H1666
How it was run: as §1

[15] = test system: LXF-289
How it was run: as §1

[16] = test system: HCC-366
How it was run: as §1

[17] = test system: HCC-15
How it was run: as §1

[18] = test system: NCI-H1975
How it was run: as §1

[19] = test system: PC-3 [JPC-3]
How it was run: as §1

[20] = test system: NCI-H2342
How it was run: as §1

[21] = test system: NCI-H2009
How it was run: as §1

[22] = test system: LC-2-ad
How it was run: as §1

[23] = test system: ABC-1
How it was run: as §1

CCNC(=O)c1noc(-c2cc(C(C)C)c(O)cc2O)c1-c1ccc(CN2CCOCC2)cc1 [Luminespib] + CC(=O)c1c(C)c2cnc(Nc3ccc(N4CCNCC4)cn3)nc2n(C2CCCC2)c1=O [Palbociclib] (partner 0.5 µM)
relative viability ([1]; first compound 0.002 µM): 0.343 | relative viability ([1]; first compound 0.006325 µM): 0.274 | relative viability ([1]; first compound 0.02 µM): 0.26 | relative viability ([1]; first compound 0.06325 µM): 0.0657 | relative viability ([1]; first compound 0.2 µM): 0.071 | relative viability ([2]; first compound 0.002 µM): 0.296 | relative viability ([2]; first compound 0.006325 µM): 0.335 | relative viability ([2]; first compound 0.02 µM): 0.368 | relative viability ([2]; first compound 0.06325 µM): 0.151 | relative viability ([2]; first compound 0.2 µM): 0.172 | relative viability ([3]; first compound 0.002 µM): 0.567 | relative viability ([3]; first compound 0.006325 µM): 0.582 | relative viability ([3]; first compound 0.02 µM): 0.376 | relative viability ([3]; first compound 0.06325 µM): 0.154 | relative viability ([3]; first compound 0.2 µM): 0.14 | relative viability ([4]; first compound 0.002 µM): 0.541 | relative viability ([4]; first compound 0.006325 µM): 0.367 | relative viability ([4]; first compound 0.02 µM): 0.315 | relative viability ([4]; first compound 0.06325 µM): 0.0535 | relative viability ([4]; first compound 0.2 µM): 0.0542 | relative viability ([5]; first compound 0.002 µM): 0.427 | relative viability ([5]; first compound 0.006325 µM): 0.396 | relative viability ([5]; first compound 0.02 µM): 0.315 | relative viability ([5]; first compound 0.06325 µM): 0.309 | relative viability ([5]; first compound 0.2 µM): 0.322 | relative viability ([6]; first compound 0.002 µM): 0.34 | relative viability ([6]; first compound 0.006325 µM): 0.306 | relative viability ([6]; first compound 0.02 µM): 0.309 | relative viability ([6]; first compound 0.06325 µM): 0.273 | relative viability ([6]; first compound 0.2 µM): 0.22 | relative viability ([7]; first compound 0.002 µM): 0.32 | relative viability ([7]; first compound 0.006325 µM): 0.303 | relative viability ([7]; first compound 0.02 µM): 0.296 | relative viability ([7]; first compound 0.06325 µM): 0.273 | relative viability ([7]; first compound 0.2 µM): 0.2 | relative viability ([8]; first compound 0.002 µM): 0.205 | relative viability ([8]; first compound 0.006325 µM): 0.232 | relative viability ([8]; first compound 0.02 µM): 0.185 | relative viability ([8]; first compound 0.06325 µM): 0.11 | relative viability ([8]; first compound 0.2 µM): 0.114 | relative viability ([9]; first compound 0.002 µM): 0.492 | relative viability ([9]; first compound 0.006325 µM): 0.473 | relative viability ([9]; first compound 0.02 µM): 0.326 | relative viability ([9]; first compound 0.06325 µM): 0.178 | relative viability ([9]; first compound 0.2 µM): 0.148 | relative viability ([10]; first compound 0.002 µM): 0.752 | relative viability ([10]; first compound 0.006325 µM): 0.616 | relative viability ([10]; first compound 0.02 µM): 0.121 | relative viability ([10]; first compound 0.06325 µM): 0.119 | relative viability ([10]; first compound 0.2 µM): 0.104 | relative viability ([11]; first compound 0.002 µM): 0.447 | relative viability ([11]; first compound 0.006325 µM): 0.434 | relative viability ([11]; first compound 0.02 µM): 0.453 | relative viability ([11]; first compound 0.06325 µM): 0.388 | relative viability ([11]; first compound 0.2 µM): 0.263 | relative viability ([12]; first compound 0.002 µM): 0.481 | relative viability ([12]; first compound 0.006325 µM): 0.454 | relative viability ([12]; first compound 0.02 µM): 0.447 | relative viability ([12]; first compound 0.06325 µM): 0.469 | relative viability ([12]; first compound 0.2 µM): 0.468 | relative viability ([13]; first compound 0.002 µM): 0.325 | relative viability ([13]; first compound 0.006325 µM): 0.304 | relative viability ([13]; first compound 0.02 µM): 0.308 | relative viability ([13]; first compound 0.06325 µM): 0.281 | relative viability ([13]; first compound 0.2 µM): 0.296 | relative viability ([14]; first compound 0.002 µM): 0.647 | relative viability ([14]; first compound 0.006325 µM): 0.67 | relative viability ([14]; first compound 0.02 µM): 0.673 | relative viability ([14]; first compound 0.06325 µM): 0.705 | relative viability ([14]; first compound 0.2 µM): 0.655 | relative viability ([15]; first compound 0.002 µM): 0.582 | relative viability ([15]; first compound 0.006325 µM): 0.569 | relative viability ([15]; first compound 0.02 µM): 0.601 | relative viability ([15]; first compound 0.06325 µM): 0.574 | relative viability ([15]; first compound 0.2 µM): 0.535 | relative viability ([16]; first compound 0.002 µM): 0.363 | relative viability ([16]; first compound 0.006325 µM): 0.358 | relative viability ([16]; first compound 0.02 µM): 0.411 | relative viability ([16]; first compound 0.06325 µM): 0.0279 | relative viability ([16]; first compound 0.2 µM): 0.0276 | relative viability ([17]; first compound 0.002 µM): 0.815 | relative viability ([17]; first compound 0.006325 µM): 0.776 | relative viability ([17]; first compound 0.02 µM): 0.875 | relative viability ([17]; first compound 0.06325 µM): 0.321 | relative viability ([17]; first compound 0.2 µM): 0.127 | relative viability ([18]; first compound 0.002 µM): 0.614 | relative viability ([18]; first compound 0.006325 µM): 0.469 | relative viability ([18]; first compound 0.02 µM): 0.363 | relative viability ([18]; first compound 0.06325 µM): 0.103 | relative viability ([18]; first compound 0.2 µM): 0.122 | relative viability ([19]; first compound 0.002 µM): 0.558 | relative viability ([19]; first compound 0.006325 µM): 0.544 | relative viability ([19]; first compound 0.02 µM): 0.518 | relative viability ([19]; first compound 0.06325 µM): 0.473 | relative viability ([19]; first compound 0.2 µM): 0.436 | relative viability ([20]; first compound 0.002 µM): 0.527 | relative viability ([20]; first compound 0.006325 µM): 0.527 | relative viability ([20]; first compound 0.02 µM): 0.438 | relative viability ([20]; first compound 0.06325 µM): 0.526 | relative viability ([20]; first compound 0.2 µM): 0.409 | relative viability ([21]; first compound 0.002 µM): 0.287 | relative viability ([21]; first compound 0.006325 µM): 0.172 | relative viability ([21]; first compound 0.02 µM): 0.113 | relative viability ([21]; first compound 0.06325 µM): 0.0496 | relative viability ([21]; first compound 0.2 µM): 0.0514 | relative viability ([22]; first compound 0.002 µM): 0.473 | relative viability ([22]; first compound 0.006325 µM): 0.486 | relative viability ([22]; first compound 0.02 µM): 0.556 | relative viability ([22]; first compound 0.06325 µM): 0.478 | relative viability ([22]; first compound 0.2 µM): 0.331 | relative viability ([23]; first compound 0.002 µM): 0.925 | relative viability ([23]; first compound 0.006325 µM): 0.876 | relative viability ([23]; first compound 0.02 µM): 0.494 | relative viability ([23]; first compound 0.06325 µM): 0.286 | relative viability ([23]; first compound 0.2 µM): 0.245
